Measurements: ChEMBL document CHEMBL4715750, “Synthesis and in vitro, ex-vivo and in vivo activity of hybrid compounds linking a potent ROS and RNS scavenger activity with diverse substrates addressed to pass across the blood-brain barrier” (Eur J Med Chem, 2016)
Active and inactive are the calls of the source. The rule behind the calls is not given here.

Key:
[1] = Cytotoxicity against human SH-SY5Y cells assessed as cell viability at 50 uM measured after 2 hrs by MTT assay relative to control; assay type: cell-based; conditions: read-out: Activity
[2] = Cytotoxicity against human SH-SY5Y cells assessed as cell viability at 1.6 uM measured after 24 hrs by MTT assay relative to control; assay type: cell-based; conditions: read-out: Activity
SH-SY5Y [3] = assay: Antioxidant activity in human SH-SY5Y cells assessed as inhibition of H2O2-induced DCFH oxidation measured after 1 hr by DCFH-DA dye based fluorescence assay; assay type: functional, cell-based
[4] = Cytotoxicity against human SH-SY5Y cells assessed as cell viability at 50 uM measured after 24 hrs by MTT assay relative to control; assay type: cell-based; conditions: read-out: Activity
[5] = Cytotoxicity against human SH-SY5Y cells assessed as cell viability at 25 uM measured after 24 hrs by MTT assay relative to control; assay type: cell-based; conditions: read-out: Activity
[6] = Cytotoxicity against human SH-SY5Y cells assessed as cell viability at 3.1 uM measured after 2 hrs by MTT assay relative to control; assay type: cell-based; conditions: read-out: Activity
[7] = Cytotoxicity against human SH-SY5Y cells assessed as cell viability at 0.8 uM measured after 2 hrs by MTT assay relative to control; assay type: cell-based; conditions: read-out: Activity
[8] = Drug concentration in Sprague-Dawley rat brain at 0.2 mmol/Kg, ip measured after 1 hr by HPLC based fluorimetric analysis; assay type: ADME, organism-based; conditions: in vivo
SH-SY5Y [9] = assay: Cytoprotective activity against DMSO-induced toxicity in human SH-SY5Y cells; assay type: functional, cell-based
[10] = Cytotoxicity against human SH-SY5Y cells assessed as cell viability at 6.3 uM measured after 24 hrs by MTT assay relative to control; assay type: cell-based; conditions: read-out: Activity
[11] = Cytotoxicity against human SH-SY5Y cells assessed as cell viability at 3.1 uM measured after 24 hrs by MTT assay relative to control; assay type: cell-based; conditions: read-out: Activity
[12] = Cytotoxicity against human SH-SY5Y cells assessed as cell viability at 1.6 uM measured after 2 hrs by MTT assay relative to control; assay type: cell-based; conditions: read-out: Activity
[13] = Cytotoxicity against human SH-SY5Y cells assessed as cell viability at 25 uM measured after 2 hrs by MTT assay relative to control; assay type: cell-based; conditions: read-out: Activity
[14] = Cytotoxicity against human SH-SY5Y cells assessed as cell viability at 100 uM measured after 24 hrs by MTT assay relative to control; assay type: cell-based; conditions: read-out: Activity
[15] = Drug concentration in Sprague-Dawley rat plasma at 0.2 mmol/Kg, ip measured after 1 hr by HPLC based fluorimetric analysis; assay type: ADME, organism-based
[16] = Cytotoxicity against human SH-SY5Y cells assessed as cell viability at 12.5 uM measured after 2 hrs by MTT assay relative to control; assay type: cell-based; conditions: read-out: Activity
[17] = Cytotoxicity against human SH-SY5Y cells assessed as cell viability at 0.8 uM measured after 24 hrs by MTT assay relative to control; assay type: cell-based; conditions: read-out: Activity
[18] = Cytotoxicity against human SH-SY5Y cells assessed as cell viability at 100 uM measured after 2 hrs by MTT assay relative to control; assay type: cell-based; conditions: read-out: Activity
[19] = Permeability of the compound at pH 7.4 by PAMPA-BBB assay; assay type: ADME; conditions: read-out: permeability
[20] = Cytotoxicity against human SH-SY5Y cells assessed as cell viability at 12.5 uM measured after 24 hrs by MTT assay relative to control; assay type: cell-based; conditions: read-out: Activity
[21] = Antioxidant activity assessed as DPPH radical scavenging activity incubated for 60 mins in absence of light; assay type: functional
[22] = Cytotoxicity against human SH-SY5Y cells assessed as cell viability at 6.3 uM measured after 2 hrs by MTT assay relative to control; assay type: cell-based; conditions: read-out: Activity
[23] = Retention time in Sprague-Dawley rat brain by HPLC based fluorimetric analysis; assay type: ADME, tissue-based

Structure (SMILES) | viability at 2 h, 50 µM [1] | viability at 24 h, 1.6 µM [2] | Activity (SH-SY5Y [3]) | IC50 (SH-SY5Y [3]) | viability at 24 h, 50 µM [4] | viability at 24 h, 25 µM [5] | viability at 2 h, 3.1 µM [6] | viability at 2 h, 0.8 µM [7] | Activity (SH-SY5Y [9]) | viability at 24 h, 6.3 µM [10] | viability at 24 h, 3.1 µM [11] | viability at 2 h, 1.6 µM [12] | viability at 2 h, 25 µM [13] | viability at 24 h, 100 µM [14] | viability at 2 h, 12.5 µM [16] | viability at 24 h, 0.8 µM [17] | viability at 2 h, 100 µM [18] | viability at 24 h, 12.5 µM [20] | IC50 [21] | viability at 2 h, 6.3 µM [22] | other results
COc1cc2c(cc1O)CCC(C)(CC(=O)N[C@@H](Cc1ccccc1)C(=O)O)O2 (stereo partly specified) | 100% | 100% | Dose-dependent effect | 44.5 µM | 89.5% | 81.1% | 100% | 99% | Active | 87.5% | 93% | 100% | 100% | 59.1% | 100% | 100% | 72.2% | 82.3% | 14.9 µM | 100% | Ct [8]: 0 nmol/g; concentration at 1 h [15]: 0.9 µM; Papp [19]: 0.49 ×10⁻⁶ cm/s
COc1cc2c(cc1O)CCC(C)(CC(=O)N[C@@H](C)C(=O)O)O2 (stereo partly specified) | 86.6% | 100% | Dose-dependent effect | 92.6 µM | 100% | 100% | 79.5% | 87.6% | Active | 94.6% | 100% | 86.9% | 89.5% | 68.5% | 85% | 100% | 70.1% | 100% | 14.7 µM | 86.4% | Papp [19]: 0.06 ×10⁻⁶ cm/s
COc1cc2c(cc1O)CCC(C)(CCNC(C)=O)O2 (stereo unspecified) | 81.2% | 78.7% | Dose-dependent effect | 50.3 µM | 66.5% | 76.2% | 82.3% | 91.3% | – | 87.8% | 90.7% | 100% | 89.2% | 57.9% | 84.8% | 89% | 66.6% | 83.5% | 14.3 µM | 79.4% | Ct [8]: 2.3 nmol/g; concentration at 1 h [15]: 3 µM; Papp [19]: 0.52 ×10⁻⁶ cm/s; Retention_time [23]: 4 min
COc1cc2c(cc1O)CCC(C)(CC(N)=O)O2 (stereo unspecified) | 74.9% | 100% | Dose-dependent effect | 71.2 µM | 99.2% | 100% | 84.8% | 88.2% | Active | 100% | 100% | 96.1% | 83.6% | 51.4% | 85.8% | 96.7% | 54.7% | 100% | 10.5 µM | 80.8% | Papp [19]: 0.28 ×10⁻⁶ cm/s
COc1cc2c(cc1O)CCC(C)(CC(=O)N[C@@H](Cc1ccc(O)cc1)C(=O)O)O2 (stereo partly specified) | 95.7% | 89.5% | Dose-dependent effect | 50 µM | 78.6% | 82.7% | 100% | 92.2% | – | 83.3% | 89.9% | 94.5% | 95.5% | 67.5% | 92.5% | 79.7% | 75.8% | 81.6% | 19.6 µM | 99.7% | concentration at 1 h [15]: 7 µM
COc1cc2c(cc1O)CCC(C)(CCNC(=O)C[C@H]1OC(O)[C@H](O)[C@@H](O)[C@@H]1O)O2 (stereo partly specified) | 99.6% | 96.7% | Dose-dependent effect | 35.6 µM | 86.6% | 87.9% | 93.3% | 88.9% | Active | 87.2% | 88.1% | 95.3% | 100% | 56.6% | 100% | 96.1% | 77.6% | 90.6% | 13.1 µM | 100% | Ct [8]: 3.1 nmol/g; concentration at 1 h [15]: 26 µM; Retention_time [23]: 2 min
